Data: PMC11571207, “Stereorandomized Oncocins with Preserved Ribosome Binding and Antibacterial Activity” (Journal of Medicinal Chemistry, 2024)
In brackets after ≈: the same amount, converted by molar mass. Non-standard residues stand in square brackets, D forms with d. Residues, ends and D or L forms follow the SMILES beside them.

Tests used:
human red blood cells = test: Hemolysis assay, minimum hemolytic concentration; settings: for Haemolysis on hRBC, MHC: 2.5% human red blood cells (final) in 10 mM phosphate, 150 mM NaCl, pH 7.4, 25 °C, 4 h, visual inspection; for MHC human red blood cells: supplement CSV
P. aeruginosa PAO1 = test: microbe, parasite or virus in culture; settings: for MIC P. aeruginosa, 12.5% MHB / MIC P. aeruginosa, Full MHB: P. aeruginosa PAO1, 16–20 h at 37 °C; for MIC P. aeruginosa, 12.5% MHB: 12.5% Müller–Hinton medium; for MIC P. aeruginosa, Full MHB: full Müller–Hinton medium; for MIC P. aeruginosa PAO1: supplement CSV
Description: (§1) We tested antibacterial effects against the Gram-negative bacteria Escherichia coli, Klebsiella pneumoniae, Pseudomonas aeruginosa, and Acinetobacter baumannii and the Gram-positive methicillin-resistant Staphylococcus aureus (MRSA).
(§2) Bacterial growth assay (Figure S1), transmission electron microscopy (Figure S6), serum stability assay (Figure S7), circular dichroism spectral recording (Figures S8 and S9), antimicrobial and hemolysis activity assays (MIC and MHC), and vesicle leakage assay were carried out as described in earlier publications.[43],[44]
(§3) Minimum inhibitory concentration assay
(§4) Antimicrobial activity was assayed against P. aeruginosa PAO1, K. pneumoniae NCTC418, E. coli W3110, A. baumannii ATCC 19606, methicillin-resistant S. aureus COL (MRSA), and for selected peptides on P. aeruginosa PA14 and the polymyxin-B-resistant derivative PA14 2P4, as well as the clinical isolates ZEM-1A and ZEM9A, K. pneumoniae OXA-48, S. aureus Newman, Enterobacter cloacae and Burkholderia cenocepacia. The minimal inhibitory concentration (MIC) was determined by using broth microdilution method. A colo ny of bacteria was picked and grown in Luria-Bertani (LB) medium overnight at 37°C. For E. coli BW25113 sbmA::kan the medium was supplemented with 25 mg/L of kanamycin. The next day, the culture was then regrown in LB medium to log phase (OD600 = 0.6 to 0.8), which lasted approximately 4 h, and diluted to an OD600 of 0.022 in the desired medium. Stock solutions of 1 mg/mL of the samples were prepared in sterilized milliQ water and diluted to the beginning concentration of 64 μg/mL in 300 μL Mueller Hinton (MH)-medium. The diluted samples were added to first well of 96-well microtiter plate (TPP, untreated, Faust Laborbedarf, AG, Schaffhausen) and diluted serially by ½. Finally, 4 μL of the bacterial suspension was inoculated into the sample solutions (150 μL/well) with a final inoculation of about 5∙10^5 CFU/mL. The plates were then incubated at 37°C for 15-18h. For each assay, sterility (broth only) and growth control (broth with bacterial inoculum, without antibiotics) were checked with two columns in the plate. The next day, 15 μL of 3-(4,5-dimethylthiazol-2-yl)-2,5-diphenyltetrazolium bromide (MTT) was added to each well of the plate, such a way that MIC was defined as the lowest concentration of the peptide that inhibited visible growth of the tested

A. baumannii ATCC19606 = test: microbe, parasite or virus in culture; settings: for MIC A. baumannii, 12.5% MHB / MIC A. baumannii, Full MHB: A. baumannii ATCC19606, 16–20 h at 37 °C; for MIC A. baumannii, 12.5% MHB: 12.5% Müller–Hinton medium; for MIC A. baumannii, Full MHB: full Müller–Hinton medium; for MIC A. baumannii ATCC19606: supplement CSV
Description: as §1, §2, §3, §4

E. coli W3110 = test: microbe, parasite or virus in culture; settings: for MIC E. coli, 12.5% MHB / MIC E. coli, Full MHB: E. coli W3110, 16–20 h at 37 °C, broth microdilution; for MIC E. coli, 12.5% MHB: 12.5% Müller–Hinton medium; for MIC E. coli, Full MHB: full Müller–Hinton medium; for MIC E. coli W3110: supplement CSV
Description: as §1, §2, §3, §4

S. aureus COL (MRSA) = test: microbe, parasite or virus in culture; settings: for MIC S. aureus, 12.5% MHB / MIC S. aureus, Full MHB: S. aureus COL (MRSA), 16–20 h at 37 °C; for MIC S. aureus, 12.5% MHB: 12.5% Müller–Hinton medium; for MIC S. aureus, Full MHB: full Müller–Hinton medium; for MIC S. aureus COL (MRSA): supplement CSV
Description: as §1, §2, §3, §4

K. pneumoniae NCTC 418 = test: microbe, parasite or virus in culture; settings: for MIC K. pneumoniae, 12.5% MHB / MIC K. pneumoniae, Full MHB: K. pneumoniae NCTC 418, 16–20 h at 37 °C; for MIC K. pneumoniae, 12.5% MHB: 12.5% Müller–Hinton medium; for MIC K. pneumoniae, Full MHB: full Müller–Hinton medium; for MIC K. pneumoniae NCTC418: supplement CSV
Description: as §1, §2, §3, §4

Structure (SMILES) | Haemolysis on hRBC, MHC (human red blood cells) | MHC human red blood cells (human red blood cells) | MIC P. aeruginosa, 12.5% MHB (P. aeruginosa PAO1) | MIC P. aeruginosa, Full MHB (P. aeruginosa PAO1) | MIC P. aeruginosa PAO1 (P. aeruginosa PAO1; 12.5% MH pH 7.4) | MIC P. aeruginosa PAO1 (P. aeruginosa PAO1; full MH pH 7.4) | MIC A. baumannii, 12.5% MHB (A. baumannii ATCC19606) | MIC A. baumannii, Full MHB (A. baumannii ATCC19606) | MIC A. baumannii ATCC19606 (A. baumannii ATCC19606; 12.5% MH pH 7.4) | MIC A. baumannii ATCC19606 (A. baumannii ATCC19606; full MH pH 7.4) | MIC E. coli, 12.5% MHB (E. coli W3110) | MIC E. coli, Full MHB (E. coli W3110) | MIC E. coli W3110 (E. coli W3110; 12.5% MH pH 7.4) | MIC E. coli W3110 (E. coli W3110; full MH pH 7.4) | MIC S. aureus, 12.5% MHB (S. aureus COL (MRSA)) | MIC S. aureus, Full MHB (S. aureus COL (MRSA)) | MIC S. aureus COL (MRSA) (S. aureus COL (MRSA); 12.5% MH pH 7.4) | MIC S. aureus COL (MRSA) (S. aureus COL (MRSA); full MH pH 7.4) | MIC K. pneumoniae, 12.5% MHB (K. pneumoniae NCTC 418) | MIC K. pneumoniae, Full MHB (K. pneumoniae NCTC 418) | also measured
CC[C@H](C)[C@H](NC(=O)[C@H](CCCNC(=N)N)NC(=O)[C@H](CCCNC(=N)N)NC(=O)[C@@H]1CCCN1C(=O)[C@H]1CCCN1C(=O)[C@H](CCCNC(=N)N)NC(=O)[C@@H]1CCCN1C(=O)[C@H](CCCNC(=N)N)NC(=O)[C@@H]1CCCN1C(=O)[C@H](CC(C)C)NC(=O)[C@H](Cc1ccc(O)cc1)NC(=O)[C@@H]1CCCN1C(=O)[C@@H]1CCCN1C(=O)[C@H](CCCCN)NC(=O)[C@H](CC(=O)O)NC(=O)[C@@H](N)C(C)C)C(=O)N[C@@H](Cc1ccc(O)cc1)C(=O)N[C@@H](CC(N)=O)C(=O)N[C@@H](CCCNC(=N)N)C(N)=O [DP12-Onc] (H-VDKPPYLPRPR[dP]PRRIYNR-NH2) | >1000 µg/mL | >1000 µg/mL | 16 µg/mL (≈ 6.69 µM) | > 64 µg/mL | 16 µg/mL (≈ 6.69 µM) | >64 µg/mL | 8 µg/mL (≈ 3.35 µM) | 16 µg/mL (≈ 6.69 µM) | 8 µg/mL (≈ 3.35 µM) | 16 µg/mL (≈ 6.69 µM) | 2 µg/mL (≈ 0.837 µM) | 8 µg/mL (≈ 3.35 µM) | 2 µg/mL (≈ 0.837 µM) | 8 µg/mL (≈ 3.35 µM) | >64 / 64 μg/mL | >64 / 64 μg/mL | 64 µg/mL (≈ 26.8 µM) | >64 µg/mL | 4 µg/mL (≈ 1.67 µM) | 16 µg/mL (≈ 6.69 µM) | MIC K. pneumoniae NCTC418 (K. pneumoniae NCTC 418; 12.5% MH pH 7.4): 4 µg/mL (≈ 1.67 µM); MIC K. pneumoniae NCTC418 (K. pneumoniae NCTC 418; full MH pH 7.4): 16 µg/mL (≈ 6.69 µM)
CC[C@H](C)[C@H](NC(=O)[C@H](CCCNC(=N)N)NC(=O)[C@H](CCCNC(=N)N)NC(=O)[C@@H]1CCCN1C(=O)[C@@H]1CCCN1C(=O)[C@H](CCCNC(=N)N)NC(=O)[C@@H]1CCCN1C(=O)[C@H](CCCNC(=N)N)NC(=O)[C@@H]1CCCN1C(=O)[C@H](CC(C)C)NC(=O)[C@H](Cc1ccc(O)cc1)NC(=O)[C@H]1CCCN1C(=O)[C@H]1CCCN1C(=O)[C@H](CCCCN)NC(=O)[C@H](CC(=O)O)NC(=O)[C@@H](N)C(C)C)C(=O)N[C@@H](Cc1ccc(O)cc1)C(=O)N[C@@H](CC(N)=O)C(=O)N[C@@H](CCCNC(=N)N)C(N)=O [DP45-Onc] (H-VDK[dP][dP]YLPRPRPPRRIYNR-NH2) | >1000 µg/mL | >1000 µg/mL | > 16 µg/mL | > 64 µg/mL | >16 µg/mL | >64 µg/mL | 16 µg/mL (≈ 6.69 µM) | > 64 µg/mL | 16 µg/mL (≈ 6.69 µM) | >64 µg/mL | 8 µg/mL (≈ 3.35 µM) | 64 µg/mL (≈ 26.8 µM) | 8 µg/mL (≈ 3.35 µM) | 64 µg/mL (≈ 26.8 µM) | >64 / >64 μg/mL | >64 / >64 μg/mL | >64 µg/mL | >64 µg/mL | > 16 µg/mL | > 64 µg/mL | MIC K. pneumoniae NCTC418 (K. pneumoniae NCTC 418; 12.5% MH pH 7.4): >16 µg/mL; MIC K. pneumoniae NCTC418 (K. pneumoniae NCTC 418; full MH pH 7.4): >64 µg/mL
CC[C@H](C)[C@H](NC(=O)[C@H](CCCNC(=N)N)NC(=O)[C@H](CCCNC(=N)N)NC(=O)[C@@H]1CCCN1C(=O)[C@@H]1CCCN1C(=O)[C@H](CCCNC(=N)N)NC(=O)[C@@H]1CCCN1C(=O)[C@@H](CCCNC(=N)N)NC(=O)[C@@H]1CCCN1C(=O)[C@H](CC(C)C)NC(=O)[C@H](Cc1ccc(O)cc1)NC(=O)[C@@H]1CCCN1C(=O)[C@@H]1CCCN1C(=O)[C@H](CCCCN)NC(=O)[C@H](CC(=O)O)NC(=O)[C@@H](N)C(C)C)C(=O)N[C@@H](Cc1ccc(O)cc1)C(=O)N[C@@H](CC(N)=O)C(=O)N[C@@H](CCCNC(=N)N)C(N)=O [DR9-Onc] (H-VDKPPYLP[dR]PRPPRRIYNR-NH2) | >1000 µg/mL | >1000 µg/mL | 32 µg/mL (≈ 13.4 µM) | > 64 µg/mL | 32 µg/mL (≈ 13.4 µM) | >64 µg/mL | 8 µg/mL (≈ 3.35 µM) | > 64 µg/mL | 8 µg/mL (≈ 3.35 µM) | >64 µg/mL | 4 µg/mL (≈ 1.67 µM) | 16 µg/mL (≈ 6.69 µM) | 4 µg/mL (≈ 1.67 µM) | 16 µg/mL (≈ 6.69 µM) | >64 / >64 μg/mL | >64 / >64 μg/mL | >64 µg/mL | >64 µg/mL | 4 µg/mL (≈ 1.67 µM) | 16 µg/mL (≈ 6.69 µM) | MIC K. pneumoniae NCTC418 (K. pneumoniae NCTC 418; 12.5% MH pH 7.4): 4 µg/mL (≈ 1.67 µM); MIC K. pneumoniae NCTC418 (K. pneumoniae NCTC 418; full MH pH 7.4): 16 µg/mL (≈ 6.69 µM)
CC[C@H](C)[C@H](NC(=O)[C@H](CCCNC(=N)N)NC(=O)[C@H](CCCNC(=N)N)NC(=O)[C@@H]1CCCN1C(=O)[C@@H]1CCCN1C(=O)[C@@H](CCCNC(=N)N)NC(=O)[C@@H]1CCCN1C(=O)[C@H](CCCNC(=N)N)NC(=O)[C@@H]1CCCN1C(=O)[C@H](CC(C)C)NC(=O)[C@H](Cc1ccc(O)cc1)NC(=O)[C@@H]1CCCN1C(=O)[C@@H]1CCCN1C(=O)[C@H](CCCCN)NC(=O)[C@H](CC(=O)O)NC(=O)[C@@H](N)C(C)C)C(=O)N[C@@H](Cc1ccc(O)cc1)C(=O)N[C@@H](CC(N)=O)C(=O)N[C@@H](CCCNC(=N)N)C(N)=O [DR11-Onc] (H-VDKPPYLPRP[dR]PPRRIYNR-NH2) | >1000 µg/mL | >1000 µg/mL | 16 µg/mL (≈ 6.69 µM) | > 64 µg/mL | 16 µg/mL (≈ 6.69 µM) | >64 µg/mL | 16 µg/mL (≈ 6.69 µM) | 32 µg/mL (≈ 13.4 µM) | 16 µg/mL (≈ 6.69 µM) | 32 µg/mL (≈ 13.4 µM) | 2 µg/mL (≈ 0.837 µM) | 16 µg/mL (≈ 6.69 µM) | 2 µg/mL (≈ 0.837 µM) | 16 µg/mL (≈ 6.69 µM) | >64 / >64 μg/mL | >64 / >64 μg/mL | >64 µg/mL | >64 µg/mL | 2 µg/mL (≈ 0.837 µM) | 16 µg/mL (≈ 6.69 µM) | MIC K. pneumoniae NCTC418 (K. pneumoniae NCTC 418; 12.5% MH pH 7.4): 2 µg/mL (≈ 0.837 µM); MIC K. pneumoniae NCTC418 (K. pneumoniae NCTC 418; full MH pH 7.4): 16 µg/mL (≈ 6.69 µM)
